We go through 30 compounds from patent US6331548A, “1-cycloalkyl-1,8-naphthyridin-4-one derivative as type IV phosphodiesterase inhibitor” (Suntory Limited, priority 1998, dated 2001).

Counter-ions that a name gives are not always drawn.

The target of this assay is type IV phosphodiesterase. Put plainly: Type IV phosphodiesterase inhibiting activity. Format: biochemical, human. The note with it: U937 type IV phosphodiesterase fraction, 0.28 μM cAMP, pH 7.5, 30° C., 30 minutes; read-out: PDEIV-IC50. Here is the method: The following assay was used to evaluate the ability of the compound of the present invention to suppress type IV phosphodiesterase, according to Biochemical. Pharmacol. 48 (6), 1219-1223 (1994).
1) Type IV phosphodiesterase activity fractions were prepared as follows. Namely, human histiocytic lymphoma cell line U937 was cultured in an RPMI1640 medium containing 10% fetal calf serum to obtain 10^9 cells of U937. The cells were recovered by centrifugation and suspended in 40 ml of buffer A (20 mM bis-tris, 5 mM 2-mercaptoethanol, 2 mM benzamidine, 2 mM EDTA, 0.1 mM 4-(2-aminoethyl)benzensulfonyl hydrochloride, 50 mM sodium acetate, pH=6.5). The cells were broken by a sonication and centrifuged (4° C., 10,000 G, 10 minutes) to obtain a supernatant. This was filtered by a 0.45 μm filter to obtain the soluble fraction.
2) The soluble fraction obtained was applied into a 1×10 cm DEAE Sepharose column equalibrated with the buffer A. 120 ml of the buffer A containing a linear gradient solution of 0.05 to 1M sodium acetate was used to separate the phosphodiesterase and recover 24 5-ml fractions. Each of the fractions was measured for the cAMP phosphodiesterase activity.
3) The test compound was reacted at a desired concentration in a reaction mixture containing 20 mM tris-HCl (pH 7.5), 1 mM MgCl2, 100 μM EDTA, 330 μg/ml calf serum albumin, 10 μg/ml 5'-nucleotidase, 0.4 μCi ^3 H-cAMP (0.28 μM cAMP) and the type IV phosphodiesterase stored solution at 30° C. for 30 minutes. QAE-Sephadex suspended in 10 mM of hepes-Na (pH -7.0) was added to the reaction mixture which was then allowed to stand for 5 minutes, then the supernatant was obtained, QAE-Sephadex was further added, to the supernatant, and was allowed to stand for 5 minutes, then the supernatant was obtained and measured for radioactivity.

Turning to `O=C(O[C@H]1CC[C@H](n2cc(C(=O)Nc3c(Cl)cncc3Cl)c(=O)c3cccnc32)CC1)c1ccc(CN2CCOCC2)cc1` [Example 135, trans-4-[3-{[(3,5-dichloro-4-pyridinyl)amino]carbonyl}-4-oxo[1,8]naphthylidin-1(4H)-yl]cyclohexyl 4-(morpholinomethyl)benzoate hydrochloride], the half-maximal inhibitory concentration (IC50) amounted to 0.0045 µM. With `O=C(NC1CCCC1)c1cn([C@H]2CC[C@H](O)CC2)c2ncccc2c1=O` [Example 168, N-cyclopentyl-1-(trans-4-hydroxycyclohexyl)-1,4-dihydro[1,8]naphthylidin-4-one-3-carboxamide], the concentration for half-maximal inhibition (IC50) turned out to be 1.5 µM. Then `Cc1cnccc1NC(=O)c1cn([C@H]2CC[C@H](O)CC2)c2ncccc2c1=O` [Example 174, N-(3-methylpyridin-4-yl)-1-(trans-4-hydroxycyclohexyl)-1,4-dihydro[1,8]naphthylidin-4-one-3-carboxamide], with 0.13 µM. To `CC1(O)CCC(n2cc(C(=O)Nc3ccncc3)c(=O)c3cccnc32)CC1` (stereo not drawn) [Example 194, N-(4-pyridinyl)-1-(4-hydroxy-4-methylcyclohexyl)-1,4-dihydro[1,8]naphthylidin-4-one-3-carboxamide] belongs 0.96 µM; to `O=C(NC1CC1)c1cn([C@H]2CC[C@H](O)CC2)c2ncccc2c1=O` [Example 170, N-cyclopropyl-1-(trans-4-hydroxycyclohexyl)-1,4-dihydro[1,8]naphthylidin-4-one-3-carboxamide], 0.99 µM. Then `CC(=O)N[C@H]1CC[C@H](n2cc(C(=O)Nc3c(Cl)cncc3Cl)c(=O)c3cccnc32)CC1` [Example 70, N-(3,5-dichloropyridin-4-yl)-1-[trans-4-(acetylamino)cyclohexyl]-1,4-dihydro[1,8]naphthylidin-4-one-3-carboxamide], with 0.0039 µM. `Cc1nn(C)c(C)c1NC(=O)c1cn([C@H]2CC[C@H](O)CC2)c2ncccc2c1=O` [Example 184, N-(1,3,5-trimethylpyrazol-4-yl)-1-(trans-4-hydroxycyclohexyl)-1,4-dihydro[1,8]naphthylidin-4-one-3-carboxamide]: the IC50 stood at 2.3 µM. To `Cc1cc(NC(=O)c2cn([C@H]3CC[C@H](O)CC3)c3ncccc3c2=O)on1` [Example 178, N-(3-methylisoxazol-5-yl)-1-(trans-4-hydroxycyclohexyl)-1,4-dihydro[1,8]naphthylidin-4-one-3-carboxamide] belongs 3.3 µM; to `CC(=O)O[C@H]1CC[C@@H](n2cc(C(=O)Nc3c(Cl)cncc3Cl)c(=O)c3cccnc32)CC1` [Example 118], 0.0013 µM; to `CC1(O)CCC(n2cc(C(=O)Nc3c(Cl)cncc3Cl)c(=O)c3cccnc32)CC1` (stereo not drawn) [Example 192, N-(3,5-dichloropyridin-4-yl)-1-(4-hydroxy-4-methylcyclohexyl)-1,4-dihydro[1,8]naphthylidin-4-one-3-carboxamide], 0.0041 µM.

Regarding `O=C(Nc1ccncc1)c1cn([C@@H]2CCOC2)c2ncccc2c1=O` [Example 38, N-(4-pyridyl)-1-[(R)-tetrahydro-3-furanyl]-1,4-dihydro[1,8]naphthylidin-4-one-3-carboxamide], the IC50 was 0.33 µM. Then `O=C(O[C@H]1CC[C@H](n2cc(C(=O)Nc3c(Cl)cncc3Cl)c(=O)c3cccnc32)CC1)c1ccccc1` [Example 130, trans-4-[3-{[(3,5-dichloro-4-pyridinyl)amino]carbonyl}-4-oxo[1,8]naphthylidin-1(4H)-yl]cyclohexylbenzoate], with 0.05 µM; and `CC(C)(C)C(=O)O[C@H]1CC[C@H](n2cc(C(=O)Nc3c(Cl)cncc3Cl)c(=O)c3cccnc32)CC1` [Example 128, trans-4-[3-{[(3,5-dichloro-4-pyridinyl)amino]carbonyl}-4-oxo[1,8]naphthylidin-1(4H)-yl]cyclohexylpivalate], with 0.0057 µM; and `O=C1CCC(n2cc(C(=O)Nc3ccncc3)c(=O)c3cccnc32)CC1` [Example 61, N-(4-pyridyl)-1-(4-oxocyclohexyl)-1,4-dihydro[1,8]naphthylidin-4-one-3-carboxamide], with 0.18 µM. Take `Cc1noc(NC(=O)c2cn([C@H]3CC[C@H](O)CC3)c3ncccc3c2=O)c1C` [Example 180, N-(3,4-dimethylisoxazol-5-yl)-1-(trans-4-hydroxycyclohexyl)-1,4-dihydro[1,8]naphthylidin-4-one-3-carboxamide]: the concentration for half-maximal inhibition (IC50) is 4.5 µM. Turning to `COC(=O)N1CCC(n2cc(C(=O)Nc3c(Cl)cccc3Cl)c(=O)c3cccnc32)C1` (racemic) [Example 4, (±)-N-(2,6-dichlorophenyl)-1-(1-methoxycarbonylpyrrolidin-3-yl)-1,4-dihydro[1,8]naphthyridin-4-one-3-carboxamide], the IC50 stood at 0.06 µM.

On to `O=C(O[C@H]1CC[C@H](n2cc(C(=O)Nc3c(Cl)cncc3Cl)c(=O)c3cccnc32)CC1)c1cccc(CN2CCOCC2)c1` [Example 162, trans-4-[3-{[(3,5-dichloro-4-pyridinyl)amino]carbonyl}-4-oxo[1,8]naphthylidin-1(4H)-yl]cyclohexyl 3-(morpholinomethyl)benzoate hydrochloride], for which the IC50 came out at 0.006 µM. Then `CC(=O)O[C@H]1CC[C@H](n2cc(C(=O)Nc3c(Cl)cncc3Cl)c(=O)c3cccnc32)CC1` [Example 197, trans-4-[3-{[(3,5-dichloropyridin-4-yl)amino]carbonyl}-1,4-dihydro[1,8]naphthylidin-1-yl]cyclohexyl acetate], with 0.0062 µM; and `CS(=O)(=O)N[C@H]1CC[C@H](n2cc(C(=O)Nc3c(Cl)cncc3Cl)c(=O)c3cccnc32)CC1` [Example 72, N-(3,5-dichloropyridin-4-yl)-1-[trans-4-(methanesulfonylamino)cyclohexyl]-1,4-dihydro[1,8]naphthylidin-4-one-3-carboxamide], with 0.11 µM; and `O=C(Nc1c(Cl)cncc1Cl)c1cn([C@@H]2CC[C@@H](O)C2)c2ncccc2c1=O` [Example 79, N-(3,5-dichloropyridin-4-yl)-1-[(1R,3R)-3-(hydroxy)cyclopentyl]-1,4-dihydro[1,8]naphthylidin-4-one-3-carboxamide], with 0.0012 µM. Consider `O=C(Nc1cccnc1)c1cn([C@H]2CC[C@H](O)CC2)c2ncccc2c1=O` [Example 172, N-(3-pyridyl)-1-(trans-4-hydroxycyclohexyl)-1,4-dihydro[1,8]naphthylidin-4-one-3-carboxamide], for which the IC50 came out at 0.36 µM. Take `CCC(=O)O[C@H]1CC[C@H](n2cc(C(=O)Nc3c(Cl)cncc3Cl)c(=O)c3cccnc32)CC1` [Example 129, trans-4-[3-{[(3,5-dichloro-4-pyridinyl)amino]carbonyl}-4-oxo[1,8]naphthylidin-1(4H)-yl]cyclohexylpropionate]: the half-maximal inhibitory concentration (IC50) is 0.0093 µM.

With `N[C@H]1CC[C@H](n2cc(C(=O)Nc3c(Cl)cncc3Cl)c(=O)c3cccnc32)CC1` [Example 69, N-(3,5-dichloropyridin-4-yl)-1-(trans-4-aminocyclohexyl)-1,4-dihydro[1,8]naphthylidin-4-one-3-carboxamide acetate], the concentration for half-maximal inhibition (IC50) stood at 0.21 µM. Then `Cc1cnccc1NC(=O)c1cn(C2CC2)c2ncccc2c1=O` [Example 157, N-(3-methylpyridin-4-yl)-1-cyclopropyl-1,4-dihydro[1,8]naphthylidin-4-one-3-carboxamide], with 0.13 µM. To `O=C(Nc1c(Cl)cncc1Cl)c1cn(C2CCCC2)c2ncccc2c1=O` [Example 150, N-(3,5-dichloropyridin-4-yl)-1-cyclopentyl-1,4-dihydro[1,8]naphthylidin-4-one-3-carboxamide] belongs 0.0003 µM. To `Cc1cc(NC(=O)c2cn([C@H]3CC[C@H](O)CC3)c3ncccc3c2=O)sn1` [Example 176, N-(3-methylisothiazol-5-yl)-1-(trans-4-hydroxycyclohexyl)-1,4-dihydro[1,8]naphthylidin-4-one-3-carboxamide] belongs 0.92 µM; to `O=C(Nc1cccnc1)c1cn(C2CC2)c2ncccc2c1=O` [Example 156, N-(3-pyridyl)-1-cyclopropyl-1,4-dihydro[1,8]naphthylidin-4-one-3-carboxamide], 0.15 µM.

Consider `O=C(NC1CCC1)c1cn([C@H]2CC[C@H](O)CC2)c2ncccc2c1=O` [Example 164], for which the 50% inhibitory concentration (IC50) was 0.4 µM. To `O=C(Nc1ccncc1)c1cn([C@H]2CC[C@@H](O)CC2)c2ncccc2c1=O` [Example 115, N-(4-pyridyl)-1-(cis-4-hydroxycyclohexyl)-1,4-dihydro[1,8]naphthylidin-4-one-3-carboxamide] belongs 0.21 µM.

With `CCNC(=O)N[C@H]1CC[C@H](n2cc(C(=O)Nc3c(Cl)cncc3Cl)c(=O)c3cccnc32)CC1` [Example 71, N-(3,5-dichloropyridin-4-yl)-1-[trans-4-(ethylaminocarbonylamino)cyclohexyl]-1,4-dihydro[1,8]naphthylidin-4-one-3-carboxamide], the IC50 came to 0.0005 µM.

As a reminder, the IC50 is the concentration needed to halve the response being measured.
